According to PubChem BioAssay (NCI):
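Compound exposure: 48 hours, 5 concentrations, 96-well plates. The concentration for 50% growth inhibition is given as GI50. Definition used: TGI = concentration required for complete inhibition of growth.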

Assays:
Assay in all cases: NCI-60 cell line screen, 48 h
786-0 renal = test system: 786-0 renal
A498 renal = test system: A498 renal
A549 NSCLC = test system: A549 NSCLC
ACHN renal = test system: ACHN renal
BT-549 breast = test system: BT-549 breast
CAKI-1 renal = test system: CAKI-1 renal
CCRF-CEM leukemia = test system: CCRF-CEM leukemia
COLO 205 colon = test system: COLO 205 colon
DU-145 prostate = test system: DU-145 prostate
EKVX NSCLC = test system: EKVX NSCLC
HCC-2998 colon = test system: HCC-2998 colon
HCT-116 colon = test system: HCT-116 colon
HCT-15 colon = test system: HCT-15 colon
HL-60(TB) leukemia = test system: HL-60(TB) leukemia
HOP-62 NSCLC = test system: HOP-62 NSCLC
HOP-92 NSCLC = test system: HOP-92 NSCLC
HS 578T breast = test system: HS 578T breast
HT29 colon = test system: HT29 colon
IGROV1 ovarian = test system: IGROV1 ovarian
K-562 leukemia = test system: K-562 leukemia
KM12 colon = test system: KM12 colon
LOX IMVI melanoma = test system: LOX IMVI melanoma
M14 melanoma = test system: M14 melanoma
MALME-3M melanoma = test system: MALME-3M melanoma
MCF7 breast = test system: MCF7 breast
MDA-MB-231 breast = test system: MDA-MB-231 breast
MDA-MB-435 = test system: MDA-MB-435
MOLT-4 leukemia = test system: MOLT-4 leukemia
NCI-H226 lung = test system: NCI-H226 lung
NCI-H23 lung = test system: NCI-H23 lung
NCI-H460 lung = test system: NCI-H460 lung
NCI-H522 lung = test system: NCI-H522 lung
NCI/ADR-RES ovarian = test system: NCI/ADR-RES ovarian
OVCAR-3 ovarian = test system: OVCAR-3 ovarian
OVCAR-4 ovarian = test system: OVCAR-4 ovarian
OVCAR-5 ovarian = test system: OVCAR-5 ovarian
OVCAR-8 ovarian = test system: OVCAR-8 ovarian
PC-3 prostate = test system: PC-3 prostate
RPMI-8226 leukemia = test system: RPMI-8226 leukemia
RXF 393 renal = test system: RXF 393 renal
SF-268 CNS = test system: SF-268 CNS
SF-295 CNS = test system: SF-295 CNS
SF-539 CNS = test system: SF-539 CNS
SK-MEL-2 melanoma = test system: SK-MEL-2 melanoma
SK-MEL-28 melanoma = test system: SK-MEL-28 melanoma
SK-MEL-5 melanoma = test system: SK-MEL-5 melanoma
SK-OV-3 ovarian = test system: SK-OV-3 ovarian
SN12C renal = test system: SN12C renal
SNB-19 CNS = test system: SNB-19 CNS
SNB-75 CNS = test system: SNB-75 CNS
SR leukemia = test system: SR leukemia
SW-620 colon = test system: SW-620 colon
T-47D breast = test system: T-47D breast
TK-10 renal = test system: TK-10 renal
U251 CNS = test system: U251 CNS
UACC-257 melanoma = test system: UACC-257 melanoma
UACC-62 melanoma = test system: UACC-62 melanoma
UO-31 renal = test system: UO-31 renal

CCN(CC)CCS(=O)c1c2cc(OC)ccc2nc2ccc(OC)cc12 (stereo not drawn)
TGI (786-0 renal): 4.35 µM
TGI (A498 renal): 33.1 µM
TGI (A549 NSCLC): 55.3 µM
TGI (ACHN renal): 5.44 µM
TGI (BT-549 breast): 31.2 µM
TGI (CAKI-1 renal): 23.9 µM
TGI (CCRF-CEM leukemia): > 25.6 µM
TGI (COLO 205 colon): 3.99 µM
TGI (DU-145 prostate): 4.04 µM
TGI (EKVX NSCLC): 30.8 µM
TGI (HCC-2998 colon): 40.7 µM
TGI (HCT-116 colon): 4.55 µM
TGI (HCT-15 colon): 16.6 µM
TGI (HL-60(TB) leukemia): > 100 µM
TGI (HOP-62 NSCLC): 44.8 µM
TGI (HOP-92 NSCLC): > 24.3 µM
TGI (HS 578T breast): 29.1 µM
TGI (HT29 colon): 12 µM
TGI (IGROV1 ovarian): 8.52 µM
TGI (K-562 leukemia): > 25.7 µM
TGI (KM12 colon): > 57.5 µM
TGI (LOX IMVI melanoma): > 42.9 µM
TGI (M14 melanoma): 26.3 µM
TGI (MALME-3M melanoma): 2.51 µM
TGI (MCF7 breast): > 24.9 µM
TGI (MDA-MB-231 breast): 28.4 µM
TGI (MDA-MB-435): 26.6 µM
TGI (MOLT-4 leukemia): > 21.2 µM
TGI (NCI-H226 lung): 39.5 µM
TGI (NCI-H23 lung): 41.3 µM
TGI (NCI-H460 lung): > 82.2 µM
TGI (NCI-H522 lung): 1.38 µM
TGI (NCI/ADR-RES ovarian): 52.6 µM
TGI (OVCAR-3 ovarian): 15.6 µM
TGI (OVCAR-4 ovarian): 29.7 µM
TGI (OVCAR-5 ovarian): 36.1 µM
TGI (OVCAR-8 ovarian): 21 µM
TGI (PC-3 prostate): 26.9 µM
TGI (RPMI-8226 leukemia): 7.11 µM
TGI (RXF 393 renal): 24.6 µM
TGI (SF-268 CNS): 23.5 µM
TGI (SF-295 CNS): 44.2 µM
TGI (SF-539 CNS): 6 µM
TGI (SK-MEL-2 melanoma): 40.3 µM
TGI (SK-MEL-28 melanoma): 34.4 µM
TGI (SK-MEL-5 melanoma): 32.3 µM
TGI (SK-OV-3 ovarian): 40.9 µM
TGI (SN12C renal): 9.64 µM
TGI (SNB-19 CNS): 72 µM
TGI (SNB-75 CNS): 36 µM
TGI (SR leukemia): > 23.7 µM
TGI (SW-620 colon): > 21.9 µM
TGI (T-47D breast): 4.04 µM
TGI (TK-10 renal): 11.7 µM
TGI (U251 CNS): > 60.6 µM
TGI (UACC-257 melanoma): 17.6 µM
TGI (UACC-62 melanoma): 36.8 µM
TGI (UO-31 renal): 5.43 µM

COC(=O)/C(=C\c1c(C)[nH]c2ccccc12)S(=O)(=O)c1ccccc1
GI50 (786-0 renal): 8.23 µM
TGI (786-0 renal): 24.1 µM
GI50 (A498 renal): 5.45 µM
TGI (A498 renal): 20.9 µM
GI50 (A549 NSCLC): 4.87 µM
TGI (A549 NSCLC): 64 µM
GI50 (ACHN renal): 5.52 µM
TGI (ACHN renal): 18.5 µM
GI50 (BT-549 breast): 5.4 µM
TGI (BT-549 breast): 25.5 µM
GI50 (CAKI-1 renal): 3.33 µM
TGI (CAKI-1 renal): 16.7 µM
GI50 (COLO 205 colon): 7.45 µM
TGI (COLO 205 colon): 22.1 µM
GI50 (DU-145 prostate): 2.94 µM
TGI (DU-145 prostate): 8.01 µM
GI50 (EKVX NSCLC): 5.04 µM
TGI (EKVX NSCLC): > 100 µM
GI50 (HCC-2998 colon): 4.89 µM
TGI (HCC-2998 colon): 17.4 µM
GI50 (HCT-116 colon): 3.8 µM
TGI (HCT-116 colon): 17.3 µM
GI50 (HCT-15 colon): 3.07 µM
TGI (HCT-15 colon): 12.8 µM
GI50 (HOP-62 NSCLC): 7.69 µM
TGI (HOP-62 NSCLC): 29.4 µM
GI50 (HOP-92 NSCLC): 4.14 µM
TGI (HOP-92 NSCLC): 51.2 µM
GI50 (HS 578T breast): 2.85 µM
TGI (HS 578T breast): 13.6 µM
GI50 (HT29 colon): 5.23 µM
TGI (HT29 colon): > 100 µM
GI50 (IGROV1 ovarian): 1.53 µM
TGI (IGROV1 ovarian): 8.94 µM
GI50 (K-562 leukemia): > 100 µM
TGI (K-562 leukemia): > 100 µM
GI50 (KM12 colon): 2.37 µM
TGI (KM12 colon): 6.31 µM
GI50 (LOX IMVI melanoma): 1.99 µM
TGI (LOX IMVI melanoma): 5.18 µM
GI50 (M14 melanoma): 4.4 µM
TGI (M14 melanoma): 20 µM
GI50 (MALME-3M melanoma): 7.27 µM
TGI (MALME-3M melanoma): 32.6 µM
GI50 (MCF7 breast): 2.81 µM
TGI (MCF7 breast): 12.5 µM
GI50 (MDA-MB-231 breast): 2.74 µM
TGI (MDA-MB-231 breast): 14.5 µM
GI50 (MDA-MB-435): 2.86 µM
TGI (MDA-MB-435): 13.8 µM
GI50 (MOLT-4 leukemia): 1.9 µM
TGI (MOLT-4 leukemia): > 100 µM
GI50 (NCI-H226 lung): 4.34 µM
TGI (NCI-H226 lung): 19.5 µM
GI50 (NCI-H23 lung): 4.81 µM
TGI (NCI-H23 lung): 29.5 µM
GI50 (NCI-H460 lung): 2.99 µM
TGI (NCI-H460 lung): 9.61 µM
GI50 (NCI-H522 lung): 3.19 µM
TGI (NCI-H522 lung): 14.4 µM
GI50 (NCI/ADR-RES ovarian): 4.19 µM
TGI (NCI/ADR-RES ovarian): 67.7 µM
GI50 (OVCAR-3 ovarian): 2.7 µM
TGI (OVCAR-3 ovarian): 7.56 µM
GI50 (OVCAR-4 ovarian): 5.71 µM
TGI (OVCAR-4 ovarian): > 100 µM
GI50 (OVCAR-5 ovarian): 17.4 µM
TGI (OVCAR-5 ovarian): 38 µM
GI50 (OVCAR-8 ovarian): 3.94 µM
TGI (OVCAR-8 ovarian): > 100 µM
GI50 (PC-3 prostate): 5.54 µM
TGI (PC-3 prostate): > 100 µM
GI50 (RPMI-8226 leukemia): 3.15 µM
TGI (RPMI-8226 leukemia): > 100 µM
GI50 (RXF 393 renal): 3.63 µM
TGI (RXF 393 renal): 31.9 µM
GI50 (SF-268 CNS): 3.33 µM
TGI (SF-268 CNS): 11.1 µM
GI50 (SF-295 CNS): 3.07 µM
TGI (SF-295 CNS): 15.7 µM
GI50 (SF-539 CNS): 3.4 µM
TGI (SF-539 CNS): 11.5 µM
GI50 (SK-MEL-2 melanoma): 10.6 µM
TGI (SK-MEL-2 melanoma): 25.5 µM
GI50 (SK-MEL-28 melanoma): 5.78 µM
TGI (SK-MEL-28 melanoma): 18.7 µM
GI50 (SK-OV-3 ovarian): 9.27 µM
TGI (SK-OV-3 ovarian): 41.4 µM
GI50 (SN12C renal): 2.55 µM
TGI (SN12C renal): 10.3 µM
GI50 (SNB-19 CNS): 7.59 µM
TGI (SNB-19 CNS): 22.1 µM
GI50 (SNB-75 CNS): 3.08 µM
TGI (SNB-75 CNS): 14.6 µM
GI50 (SR leukemia): 1.05 µM
TGI (SR leukemia): > 100 µM
GI50 (SW-620 colon): 5.15 µM
TGI (SW-620 colon): 21.9 µM
GI50 (T-47D breast): 3.21 µM
TGI (T-47D breast): 16.6 µM
GI50 (TK-10 renal): 8.07 µM
TGI (TK-10 renal): 96.6 µM
GI50 (U251 CNS): 3.42 µM
TGI (U251 CNS): 12.6 µM
GI50 (UACC-257 melanoma): 6.97 µM
TGI (UACC-257 melanoma): 20.9 µM
GI50 (UACC-62 melanoma): 2.77 µM
TGI (UACC-62 melanoma): 13.3 µM
GI50 (UO-31 renal): 4.39 µM
TGI (UO-31 renal): 18.4 µM
